How the values were obtained:
[1] = system: Saccharomyces cerevisiae; experiment: Inhibition of alpha glucosidase from baker's yeast at 50 uM
[2] = system: Rattus norvegicus; experiment: Antidiabetic activity in po dosed Streptozotocin induced diabetic Sprague-Dawley rat assessed as decrease in serum glucose level after 60 mins; format: functional; design: concentration or dose not given beside the values
[3] = system: Rattus norvegicus; experiment: Antidiabetic activity in po dosed Streptozotocin induced diabetic Sprague-Dawley rat assessed as decrease in serum glucose level after 120 mins; format: functional; design: scale not given: the % may be the effect or the level left

Structure (SMILES) | inhibition [1] [%] | Activity [2] [%] | Activity [3] [%]
COc1ccc(N2C(=O)NC(=O)/C(=C\c3cccn3CCOc3cccc(C)c3)C2=O)cc1Cl | 88.7 | 5 | 23
C[C@H]1O[C@H](O[C@H]2[C@H](O)[C@@H](O)[C@@H](OC3[C@@H](CO)OC(O)[C@H](O)[C@H]3O)O[C@@H]2CO)[C@H](O)[C@@H](O)[C@@H]1N[C@H]1C=C(CO)[C@@H](O)[C@H](O)[C@H]1O (single isomer, unassigned) | 88.1 | – | –
N#C/C(=C\Nc1cccc(F)c1)c1nc(-c2cc3ccccc3oc2=O)cs1 | 75.2 | 20 | –
CCc1ccc(N2C(=O)NC(=O)/C(=C\c3cccn3CCOc3cccc(C)c3)C2=O)cc1 | 86 | 20 | –
Cc1ccc(Nc2nc(N)nc(COc3cccc4cccnc34)n2)cc1 | 78.9 | 20 | –

Reference: ChEMBL document CHEMBL1157447, “Discovery and biological evaluation of novel alpha-glucosidase inhibitors with in vivo antidiabetic effect” (2008)
